From ChEMBL document CHEMBL4483862, “Open-source discovery of chemical leads for next-generation chemoprotective antimalarials” (2018)

Test system: Plasmodium berghei
Assay: Luciferase/luciferin-expressing antifolate-resistant parasites were used to infect a culture of HepG2 cells that were pre-incubated with compounds. Infected hepatocytes emit light due to the luciferase reaction. Assay results are presented as the percent inhibition of light emission compared to control. […]
Format: functional
Conditions: sporozoite; for IC90: read-out: LUCIFERASE INFECTION ASSAY - IC90
[1] = read-out: LUCIFERASE INFECTION ASSAY - IC50

| SMILES | IC90 | other results |
| --- | --- | --- |
| CCc1nc2oc3ccccc3c(=O)c2c(=O)n1CCc1ccccc1 | > 9.53 µM | IC50 (HEPG2TOX_HILL_SLOPE 2.79, HEPG2TOX_R_SQUARED 0.325, PBLUC_HILL_SLOPE 2.85, PBLUC_R_SQUARED 0.319, read-out: LUCIFERASE INFECTION ASSAY - IC50): 4.63 µM |
| CCN1/C(=C\C(=O)c2ccccc2Oc2ccccc2)C(C)(C)c2c1ccc1ccccc21 | 8.43 µM | IC50 (HEPG2TOX_HILL_SLOPE 8.78, HEPG2TOX_R_SQUARED 0.227, PBLUC_HILL_SLOPE 3.21, PBLUC_R_SQUARED 0.612, read-out: LUCIFERASE INFECTION ASSAY - IC50): 4.25 µM |
| CC(C)=CC(=O)Nc1scc(-c2ccccc2)c1C(=O)OCc1nnc(-c2cccs2)o1 | > 10 µM | IC50 (FFLUC_HILL_SLOPE 8.85, FFLUC_R_SQUARED 0.514, PBLUC_HILL_SLOPE 2.24, PBLUC_R_SQUARED 0.566, read-out: LUCIFERASE INFECTION ASSAY - IC50): 5.03 µM |
| O=C(CSc1ccccc1)Nc1nc2ccccn2c1C(=O)NC1CCCCC1 | > 8.08 µM | IC50 (HEPG2TOX_HILL_SLOPE 2.44, HEPG2TOX_R_SQUARED 0.782, PBLUC_HILL_SLOPE 1.51, PBLUC_R_SQUARED 0.873, read-out: LUCIFERASE INFECTION ASSAY - IC50): 2.83 µM |
| Cc1nnnn1/C(=C\c1ccccc1)C(=O)N1CCCC1c1nc2ccccc2s1 (configuration not stated) | > 10 µM | IC50 (HEPG2TOX_HILL_SLOPE 10.1, HEPG2TOX_R_SQUARED 0.585, PBLUC_HILL_SLOPE 18.2, PBLUC_R_SQUARED 0.211, read-out: LUCIFERASE INFECTION ASSAY - IC50): 9.46 µM |
| O=C(C(Sc1nc2cc(S(=O)(=O)N3CCCCC3)ccc2o1)c1ccccc1)N1CCCCC1 (configuration not stated) | > 10 µM | IC50 (HEPG2TOX_HILL_SLOPE 0.777, HEPG2TOX_R_SQUARED 0.137, read-out: LUCIFERASE INFECTION ASSAY - IC50): > 10 µM |
| Cc1ccc(C(=O)NCCSc2ccc(Cl)cc2)o1 | > 10 µM | IC50 [1]: > 10 µM |
| CN1CCN(c2ccc(-c3cn4c(-c5cccc(O)c5)cnc4cn3)cn2)CC1 | > 8.54 µM | IC50 (PBLUC_HILL_SLOPE 4.85, PBLUC_R_SQUARED 0.265, read-out: LUCIFERASE INFECTION ASSAY - IC50): 7.18 µM |
| CCOc1ccc(Oc2ccc(S(=O)(=O)Oc3ccccc3C(N)=O)cc2)cc1 | 3.39 µM | IC50 (PBLUC_HILL_SLOPE 12.7, PBLUC_R_SQUARED 0.259, read-out: LUCIFERASE INFECTION ASSAY - IC50): 2.85 µM |
| CCNC(=O)NC(=O)CNC(c1ccc(CC)cc1)c1cccc(F)c1 (configuration not stated) | > 10 µM | IC50 (HEPG2TOX_HILL_SLOPE 2.54, HEPG2TOX_R_SQUARED 0.274, read-out: LUCIFERASE INFECTION ASSAY - IC50): > 10 µM |
| CCN(CC)c1ccc(N=C2C=CC(=O)c3ccccc32)c(C)c1 | 4.59 µM | IC50 (FFLUC_HILL_SLOPE 15.8, FFLUC_R_SQUARED 0.584, HEPG2TOX_HILL_SLOPE 2.04, HEPG2TOX_R_SQUARED 0.961, PBLUC_HILL_SLOPE 2.09, PBLUC_R_SQUARED 0.781, read-out: LUCIFERASE INFECTION ASSAY - IC50): 1.61 µM |
| CC1CCc2sc(-c3nnc(SCC(=O)Nc4sccc4C(N)=O)o3)cc2C1 (configuration not stated) | 9.89 µM | IC50 (PBLUC_HILL_SLOPE 4.8, PBLUC_R_SQUARED 0.154, read-out: LUCIFERASE INFECTION ASSAY - IC50): 6.26 µM |
| CC(C)c1ccc(-c2csc(NC(=O)c3cccc(NC(=O)C4CCCO4)c3)n2)cc1 (configuration not stated) | > 10 µM | IC50 (PBLUC_HILL_SLOPE 15.4, PBLUC_R_SQUARED 0.296, read-out: LUCIFERASE INFECTION ASSAY - IC50): 9.87 µM |
| Fc1cccc(-c2nc3ccnc(Nc4ccccc4)c3[nH]2)c1 | > 10 µM | IC50 (HEPG2TOX_HILL_SLOPE 0.405, HEPG2TOX_R_SQUARED 0.516, PBLUC_HILL_SLOPE 2.81, PBLUC_R_SQUARED 0.545, read-out: LUCIFERASE INFECTION ASSAY - IC50): 5.99 µM |
| O=C(Nc1ccc2c(c1)OC1(CCCC1)O2)N1CCN(c2ccc(O)cc2)CC1 | 4.23 µM | IC50 (HEPG2TOX_HILL_SLOPE 12.8, HEPG2TOX_R_SQUARED 0.476, PBLUC_HILL_SLOPE 2.26, PBLUC_R_SQUARED 0.894, read-out: LUCIFERASE INFECTION ASSAY - IC50): 1.6 µM |
| CC(OC(=O)c1cccc(NC(=O)c2cccs2)c1)C(=O)C12CC3CC(CC(C3)C1)C2 (configuration not stated) | 3.57 µM | IC50 (PBLUC_HILL_SLOPE 20.8, PBLUC_R_SQUARED 0.61, read-out: LUCIFERASE INFECTION ASSAY - IC50): 3.22 µM |
| Cc1ccc(C)c(NC(=O)C(OC(=O)c2c3c(nc4ccccc24)CCN(C)C3)c2ccccc2)c1 (configuration not stated) | > 10 µM | IC50 (HEPG2TOX_HILL_SLOPE 0.135, HEPG2TOX_R_SQUARED 0.194, read-out: LUCIFERASE INFECTION ASSAY - IC50): > 10 µM |
| CCn1nc(C)c(Br)c1C(=O)Sc1ccccc1Cl | > 9.17 µM | IC50 (FFLUC_HILL_SLOPE 17.2, FFLUC_R_SQUARED 0.444, read-out: LUCIFERASE INFECTION ASSAY - IC50): > 9.17 µM |
| CC1=C(C(=O)OC(C)C)C(c2ccccc2)n2nc(-c3cccs3)nc2N1 (configuration not stated) | > 10 µM | IC50 (HEPG2TOX_HILL_SLOPE 6.88, HEPG2TOX_R_SQUARED 0.357, read-out: LUCIFERASE INFECTION ASSAY - IC50): > 10 µM |
| Cc1csc2ncnc(N3CCN(C(=O)Nc4ccc(Cl)c(Cl)c4)CC3)c12 | > 7.81 µM | IC50 (HEPG2TOX_HILL_SLOPE 0.318, HEPG2TOX_R_SQUARED 0.0791, PBLUC_HILL_SLOPE 1.99, PBLUC_R_SQUARED 0.376, read-out: LUCIFERASE INFECTION ASSAY - IC50): > 7.81 µM |
| O=C(Cc1coc2cc3c(cc12)CCC3)OCc1nccn1C(F)F | > 10 µM | IC50 (PBLUC_HILL_SLOPE 0.616, PBLUC_R_SQUARED 0.411, read-out: LUCIFERASE INFECTION ASSAY - IC50): > 10 µM |

| SMILES | IC90 | other results |
| --- | --- | --- |
| O=[N+]([O-])c1cccc2nc(/C=C/c3nn(Cc4ccccc4)cc3-c3cccnc3)ccc12 | > 10 µM | IC50 [1]: > 10 µM |
| C=C(C)COc1ccc(-c2[nH]nc(C)c2-c2ccc(OC)c(OC)c2)c(O)c1 | 1.84 µM | IC50 (HEPG2TOX_HILL_SLOPE 1.51, HEPG2TOX_R_SQUARED 0.867, PBLUC_HILL_SLOPE 1.78, PBLUC_R_SQUARED 0.654, read-out: LUCIFERASE INFECTION ASSAY - IC50): 0.535 µM |
| CNC(=O)CNc1nc(-c2ccccn2)nc2scc(-c3ccccc3)c12 | 7.43 µM | IC50 (PBLUC_HILL_SLOPE 4.47, PBLUC_R_SQUARED 0.505, read-out: LUCIFERASE INFECTION ASSAY - IC50): 4.55 µM |
| CCCNS(=O)(=O)c1cccc(C(=O)N2CCN(c3cccc(OC)c3)CC2)c1 | > 10 µM | IC50 (HEPG2TOX_HILL_SLOPE 3.58, HEPG2TOX_R_SQUARED 0.848, read-out: LUCIFERASE INFECTION ASSAY - IC50): > 10 µM |
| Cn1c(=O)[nH]c(=O)c2c1nc(Nc1ccc(Cl)cc1Cl)n2CC(=O)O | > 10 µM | IC50 [1]: > 10 µM |
| Cc1ccc(S(=O)(=O)Oc2ccccc2/C=N/N=C2\NC(=O)CS2)cc1Cl | > 10 µM | IC50 (HEPG2TOX_HILL_SLOPE 8.05, HEPG2TOX_R_SQUARED 0.112, PBLUC_HILL_SLOPE 0.841, PBLUC_R_SQUARED 0.28, read-out: LUCIFERASE INFECTION ASSAY - IC50): > 10 µM |
| CCC(C)(C)NC(=O)CSC(c1ccc(F)cc1)c1ccc(F)cc1 | > 10 µM | IC50 [1]: > 10 µM |
| Cc1nn(Cc2ccccc2Cl)c(C)c1C(=O)OCC(=O)N1CCN(c2ccccc2)CC1 | > 10 µM | IC50 [1]: > 10 µM |
| CCc1nn2c(=O)cc(CSc3nccc(C)n3)[nH]c2c1-c1ccc(F)cc1 | > 8.34 µM | IC50 (HEPG2TOX_HILL_SLOPE 0.32, HEPG2TOX_R_SQUARED 0.345, PBLUC_HILL_SLOPE 2.6, PBLUC_R_SQUARED 0.743, read-out: LUCIFERASE INFECTION ASSAY - IC50): 4.67 µM |
| N#CC1=C2C=CC=CN2C(c2ccccc2)(C(F)(F)F)N=C1SCC(=O)Nc1ccc(Cl)c(Cl)c1 (configuration not stated) | > 10 µM | IC50 [1]: > 10 µM |
| O=C(Nc1ccc([N+](=O)[O-])cc1)n1nccc1-c1ccc(-c2cccs2)s1 | > 8.32 µM | IC50 [1]: 7.77 µM |
| COC(=O)c1cc(C(=O)OC)cc(-n2c(C)cc(C(=O)Cn3ncc(Cl)c(Cl)c3=O)c2C)c1 | 4.48 µM | IC50 (FFLUC_HILL_SLOPE 11.1, FFLUC_R_SQUARED 0.501, HEPG2TOX_HILL_SLOPE 4.27, HEPG2TOX_R_SQUARED 0.789, PBLUC_HILL_SLOPE 11.5, PBLUC_R_SQUARED 0.682, read-out: LUCIFERASE INFECTION ASSAY - IC50): 3.7 µM |
| Cc1nn(Cc2ccccc2Cl)c(C)c1C(=O)Nc1nc(-c2ccccn2)cs1 | 6.51 µM | IC50 (PBLUC_HILL_SLOPE 5.44, PBLUC_R_SQUARED 0.0706, read-out: LUCIFERASE INFECTION ASSAY - IC50): 4.34 µM |
| FC(F)(F)c1cccc(NC(=S)NC2CC3C=CC2C3)c1 (configuration not stated) | > 10.6 µM | IC50 (PBLUC_HILL_SLOPE 0.542, PBLUC_R_SQUARED 0.315, read-out: LUCIFERASE INFECTION ASSAY - IC50): 4.71 µM |
| Cn1c(Cn2nnc(-c3cccc(F)c3)n2)nc2ccccc2c1=O | > 10 µM | IC50 [1]: > 10 µM |
| CC(=O)Nc1ccc(NC(=O)c2cc(C)n(C3CCCCC3)c2C)cc1 | > 10 µM | IC50 (HEPG2TOX_HILL_SLOPE 0.564, HEPG2TOX_R_SQUARED 0.119, read-out: LUCIFERASE INFECTION ASSAY - IC50): > 10 µM |
| N#Cc1cc(C(=O)c2cc(F)ccc2OC(=O)C2(c3ccccc3)CC2)cn(Cc2ccccc2)c1=O | > 10 µM | IC50 [1]: > 10 µM |
| Cc1cc(O)c(CN2CCN(S(=O)(=O)/C=C/c3ccccc3)CC2)cc1C(C)C | > 10 µM | IC50 [1]: > 10 µM |
| Cc1ccc(NC(=O)CN2CCN(Cc3c(O)ccc4ccncc34)CC2)cc1 | > 10 µM | IC50 [1]: > 10 µM |
| CN(Cc1nc2ccccc2s1)C(=O)c1cc(-c2ccccc2)c(N2CCOCC2)s1 | > 10 µM | IC50 [1]: > 10 µM |
